According to patent US4060606A (Leo Pharmaceutical Products Ltd. A/S, priority 1976, dated 1977):
Values after ≈ are worked out from the molar mass of the structure shown.

Assays:
Experiment in all cases: In vitro antibacterial activity, concentrations required for 50% inhibition
Type in all cases: cell-based
[1] = tested on: Bacteroides fragilis Leo JA2; details: LEOJA2
Text: (§1) Now, however, it has been found, that the compounds of the present invention both in vitro and in vivo show interesting antimicrobial and pharmacokinetic properties. Thereby the compounds of the invention can be used in the treatment of bacterial infections in humans and animals.

[2] = tested on: Bacillus subtilis Leo KA3; details: LEOKA3
Text: as §1

[3] = tested on: Strep. species Leo EG2
Text: as §1

[4] = tested on: Strep. pyogenes Leo EC; details: Streptococcus pyogenes
Text: as §1

[5] = tested on: Staph. aureus Leo CC 178B; details: Staphylococcus aureus, LEOCC178B
Text: as §1

SMILES	IC50 [1] [µg/mL]	IC50 [2] [µg/mL]	IC50 [3] [µg/mL]	IC50 [4] [µg/mL]	IC50 [5] [µg/mL]
CC(C)=CCC/C(C(=O)O)=C1/[C@@H](SC(C)C)C[C@@]2(C)[C@H]1CC(=O)[C@H]1[C@@]3(C)CC[C@@H](O)[C@@H](C)[C@@H]3CC[C@@]12C [Example 32, 11-Keto-16-deacetoxy-16β-isopropylthiofusidic acid]	3.2 (≈ 6.03 µM)	0.02 (≈ 0.0377 µM)	0.63 (≈ 1.19 µM)	0.2 (≈ 0.377 µM)	0.02 (≈ 0.0377 µM)
CC(C)CCC/C(C(=O)O)=C1/[C@@H](SC(C)C)C[C@@]2(C)[C@H]1CC(=O)[C@H]1[C@@]3(C)CC[C@@H](O)[C@@H](C)[C@@H]3CC[C@@]12C [Example 33, 11-Keto-16-deacetoxy-16β-isopropylthio-24,25-dihydrofusidic acid]	2 (≈ 3.75 µM)	0.05 (≈ 0.0938 µM)	0.79 (≈ 1.48 µM)	0.32 (≈ 0.601 µM)	0.04 (≈ 0.0751 µM)
CCO[C@H]1C[C@@]2(C)[C@@H](CC(=O)[C@H]3[C@@]4(C)CC[C@@H](O)[C@@H](C)[C@@H]4CC[C@@]32C)/C1=C(\CCC=C(C)C)C(=O)O [Example 75, 11-Keto-16-deacetoxy-16β-ethoxyfusidic acid]	13 (≈ 26 µM)	0.05 (≈ 0.0999 µM)	3.2 (≈ 6.39 µM)	1 (≈ 2 µM)	0.02 (≈ 0.0399 µM)
CC(C)CCC/C(C(=O)O)=C1/[C@@H]([S+]([O-])C(C)C)C[C@@]2(C)[C@H]1C[C@@H](O)[C@H]1[C@@]3(C)CC[C@@H](O)[C@@H](C)[C@@H]3CC[C@@]12C (stereo partly drawn) [Example 42, 16-Deacetoxy-16β-isopropylsulfinyl-24,25-dihydrofusidic acid]	1.6 (≈ 2.9 µM)	0.16 (≈ 0.29 µM)	0.5 (≈ 0.908 µM)	0.16 (≈ 0.29 µM)	0.04 (≈ 0.0726 µM)
CC(C)=CCC/C(C(=O)O)=C1/[C@@H]([S+]([O-])C(C)C)C[C@@]2(C)[C@H]1C[C@@H](O)[C@H]1[C@@]3(C)CC[C@@H](O)[C@@H](C)[C@@H]3CC[C@@]12C (stereo partly drawn) [Example 35, 16-deacetoxy-16β-isopropylsulfinylfusidic acid]	1.3 (≈ 2.37 µM)	0.4 (≈ 0.729 µM)	0.32 (≈ 0.583 µM)	0.2 (≈ 0.364 µM)	0.05 (≈ 0.0911 µM)
CC(C)=CCC/C(C(=O)O)=C1/[C@@H](OCC(F)(F)F)C[C@@]2(C)[C@H]1C[C@@H](O)[C@H]1[C@@]3(C)CC[C@@H](O)[C@@H](C)[C@@H]3CC[C@@]12C [Example 48, 16-deacetoxy-16β-(2',2',2'-trifluoroethoxy)fusidic acid]	32 (≈ 57.5 µM)	0.02 (≈ 0.0359 µM)	1 (≈ 1.8 µM)	0.5 (≈ 0.898 µM)	0.016 (≈ 0.0287 µM)
CC(C)=CCC/C(C(=O)O)=C1/[C@@H](OCCF)C[C@@]2(C)[C@H]1C[C@@H](O)[C@H]1[C@@]3(C)CC[C@@H](O)[C@@H](C)[C@@H]3CC[C@@]12C [Example 50, 16-Deacetoxy-16β-(2'-fluoroethoxy)fusidic acid]	0.32 (≈ 0.615 µM)	0.05 (≈ 0.096 µM)	2.5 (≈ 4.8 µM)	0.63 (≈ 1.21 µM)	0.02 (≈ 0.0384 µM)
CC(C)=CCC/C(C(=O)O)=C1/[C@@H](SC(C)C)C[C@@]2(C)[C@H]1C[C@@H](O)[C@H]1[C@@]3(C)CCC(=O)[C@@H](C)[C@@H]3CC[C@@]12C [Example 34, 3-Keto-16-deacetoxy-16β-isopropylthiofusidic acid]	5 (≈ 9.42 µM)	0.05 (≈ 0.0942 µM)	1 (≈ 1.88 µM)	0.4 (≈ 0.754 µM)	0.04 (≈ 0.0754 µM)
CC(=O)O[C@H]1C[C@@]2(C)[C@@H](C[C@@H](O)[C@H]3[C@@]4(C)CC[C@@H](O)[C@@H](C)[C@@H]4CC[C@@]32C)/C1=C(\CCC=C(C)C)C(=O)O [Fusidic acid, reference compound]	1.6 (≈ 3.1 µM)	0.2 (≈ 0.387 µM)	1.6 (≈ 3.1 µM)	0.79 (≈ 1.53 µM)	0.032 (≈ 0.0619 µM)
CC(C)=CCC/C(C(=O)O)=C1/[C@@H](SC(C)C)C[C@@]2(C)[C@H]1C[C@@H](O)[C@H]1[C@@]3(C)CC[C@@H](O)[C@@H](C)[C@@H]3CC[C@@]12C [Example 1, 16-Deacetoxy-16β-isopropylthiofusidic acid]	5 (≈ 9.38 µM)	0.02 (≈ 0.0375 µM)	1 (≈ 1.88 µM)	0.2 (≈ 0.375 µM)	0.032 (≈ 0.0601 µM)
CC(C)CCC/C(C(=O)O)=C1/[C@@H](SC(C)C)C[C@@]2(C)[C@H]1C[C@@H](O)[C@H]1[C@@]3(C)CC[C@@H](O)[C@@H](C)[C@@H]3CC[C@@]12C [Example 11, 16-Deacetoxy-16β-isopropylthio-24,25-dihydrofusidic acid]	4 (≈ 7.48 µM)	0.008 (≈ 0.015 µM)	0.1 (≈ 0.187 µM)	0.04 (≈ 0.0748 µM)	0.016 (≈ 0.0299 µM)
CCO[C@H]1C[C@@]2(C)[C@@H](C[C@@H](O)[C@H]3[C@@]4(C)CC[C@@H](O)[C@@H](C)[C@@H]4CC[C@@]32C)/C1=C(\CCC=C(C)C)C(=O)O [Example 46, 16-Deacetoxy-16β-ethoxyfusidic acid]	1 (≈ 1.99 µM)	0.05 (≈ 0.0995 µM)	5 (≈ 9.95 µM)	1 (≈ 1.99 µM)	0.025 (≈ 0.0497 µM)
CC(C)=CCC/C(C(=O)O)=C1/[C@@H](OC(CF)CF)C[C@@]2(C)[C@H]1C[C@@H](O)[C@H]1[C@@]3(C)CC[C@@H](O)[C@@H](C)[C@@H]3CC[C@@]12C [Example 52]	0.63 (≈ 1.14 µM)	0.04 (≈ 0.0724 µM)	3.2 (≈ 5.79 µM)	0.5 (≈ 0.905 µM)	0.025 (≈ 0.0452 µM)
CC(C)=CCC/C(C(=O)O)=C1/[C@@H](OCCF)C[C@@]2(C)[C@H]1CC(=O)[C@H]1[C@@]3(C)CC[C@@H](O)[C@@H](C)[C@@H]3CC[C@@]12C [Example 76, 11-Keto-16-deacetoxy-16β-(2'-fluoroethoxy)fusidic acid]	2 (≈ 3.86 µM)	0.032 (≈ 0.0617 µM)	4 (≈ 7.71 µM)	1.6 (≈ 3.08 µM)	0.025 (≈ 0.0482 µM)
